Data as given in ChEMBL document CHEMBL1150298, “Sulfadiazine/hydroxypropyl-beta-cyclodextrin host-guest system: Characterization, phase-solubility and molecular modeling” (Bioorg Med Chem, 2008).
In brackets after ≈: the same amount, converted by molar mass.

Test: Aqueous solubility of compound at pH 7 by spectrophotometry
Conditions: aqueous solution

solubility: 40 µg/mL (≈ 160 µM)
SMILES: Nc1ccc(S(=O)(=O)Nc2ncccn2)cc1 [SULFADIAZINE]
